Read-outs that look alike come from different tables or passages of the source.
Experiments:
P. acnes ATCC 11827 = assay: micro-dilution broth method (MIC, MBC); assay type: cell-based, Propionibacterium acnes
V. parvula ATCC 10790 = assay: micro-dilution broth method (MIC, MBC); assay type: cell-based, Veillonella parvula
H. pylori ATCC 43504 = assay: micro-dilution broth method (MIC, MBC); assay type: cell-based
P. intermedia ATCC 25611 = assay: micro-dilution broth method (MIC, MBC); assay type: cell-based
[1] = test system: S. epidermidis ATCC 12228; assay: micro-dilution broth method (MIC, MBC); assay type: cell-based, Staphylococcus epidermidis
B. cereus ATCC 10876 = assay: micro-dilution broth method (MIC, MBC); assay type: cell-based, Bacillus cereus
S. aureus ATCC 25923 = assay: micro-dilution broth method (MIC, MBC); assay type: cell-based, Staphylococcus aureus
F. nucleatum ATCC 25586 = assay: micro-dilution broth method (MIC, MBC); assay type: cell-based, Fusobacterium nucleatum
HepG2 cells [2] = assay: NRU assay (lysosomal activity), 72 h exposure; assay type: cell-based, human; settings: Homo sapiens, mean ± SD, n = 3
Protocol: (§1) The human hepatoma (HepG2) and colorectal adenocarcinoma (Caco-2) cells were purchased from the American Type Culture Collection: ATCC HB-8065 and ATCC HTB-37, respectively. These cells were cultured in Minimum Essential Medium Eagle (MEME) (ATCC). The murine fibroblasts cell line (Balb/c 3T3 clone A31) (gift from the Department of Swine Diseases of the National Veterinary Research Institute in Pulawy) was cultured in Dulbecco’s Modified Eagle Medium (DMEM) (ATCC). The media were supplemented with 10% BCS (Balb/c 3T3), 10% FBS (HepG2), 20% FBS (Caco-2), 1% L-glutamine, 1% antibiotic solution. The cells were maintained in 75 cm^2 cell culture flasks (NUNC) in a humidified incubator at 37 °C in an atmosphere of 5% CO2. The medium was refreshed every two or three days, and the cells were trypsinized by 0.25% trypsin–0.02% EDTA after reaching 70–80% confluence. Single cell suspensions were prepared and adjusted to a density of 2 × 10^5 cell/mL^−1 (HepG2), 1 × 10^5 cell/mL^−1 (Caco-2) and 5 × 10^4 cell/mL^−1 (Balb/c 3T3). The cell suspension was transferred to 96-well plates (100 µL/well) and incubated for 24 h before the exposure to the studied compounds. Stock solutions of ligands and metal complexes were prepared in sterile water and diluted with culture medium to obtain a concentration range from 0.1 to 10 µM. The final concentration of sterile water was 0.1% in the medium. […] As a negative control, cultured cells were grown in the absence of studied compounds. Each concentration was tested in six replicates in three independent experiments. Cytotoxicity was assessed after 72 h of exposure of the cells to compounds. The medium was not changed during the incubation time.
This method is based on staining living cells with neutral red, which readily diffuses through the plasma membrane and accumulates in lysosomes. […] After 10 min of shaking, the absorbance of the dissolved NR was measured using a Synergy HTX multi-mode reader (BioTek® Instruments Inc., Winooski, VT, USA) at 540 nm using a blank as a reference. Cytotoxicity was expressed as a percentage of the negative control. […]

E. coli ATCC 25922 = assay: micro-dilution broth method (MIC, MBC); assay type: cell-based, Escherichia coli
B. fragilis ATCC 10240 = assay: micro-dilution broth method (MIC, MBC); assay type: cell-based, Bacteroides fragilis
A. israeli ATCC 10049 = assay: micro-dilution broth method (MIC, MBC); assay type: cell-based, Actinomyces israelii
K. pneumoniae ATCC 13883 = assay: micro-dilution broth method (MIC, MBC); assay type: cell-based, Klebsiella pneumoniae
HepG2 cells [3] = assay: MTT assay (mitochondrial activity), 72 h exposure; assay type: cell-based, human; settings: Homo sapiens, mean ± SD, n = 3
Protocol: as §1
The metabolic activity of living cells was assessed by the measurement of the activity of dehydrogenases. […] The plate was shaken for 15 min at room temperature and transferred to a microplate reader Synergy HTX multi-mode reader (BioTek® Instruments Inc., Winooski, VT, USA) to measure the absorbance at 570 nm, using a blank as a reference. Cytotoxicity was expressed as a percentage of the negative control. […]

[4] = P. acnes ATCC 11827, value in brackets
[5] = V. parvula ATCC 10790, value in brackets
[6] = H. pylori ATCC 43504, value in brackets
[7] = P. intermedia ATCC 25611, value in brackets
[8] = S. epidermidis ATCC 12228, value in brackets
[9] = B. cereus ATCC 10876, value in brackets
[10] = S. aureus ATCC 25923, value in brackets
[11] = F. nucleatum ATCC 25586, value in brackets
[12] = Fusobacterium nucleatum, ATCC25586
[13] = E. coli ATCC 25922, value in brackets
[14] = B. fragilis ATCC 10240, value in brackets
[15] = A. israeli ATCC 10049, value in brackets
[16] = K. pneumoniae ATCC 13883, value in brackets

Cc1ncc([N+](=O)[O-])n1CCO [MTZ, 2-Methyl-5-nitroimidazole-1-ethanol]
> 1000 µg/mL: MBC (P. acnes ATCC 11827; Cutibacterium acnes, ATCC11827, P. acnes ATCC 11827, read-out: MBC) | MIC (P. acnes ATCC 11827; Cutibacterium acnes, ATCC11827, P. acnes ATCC 11827, read-out: MIC) | MBC (P. intermedia ATCC 25611; Prevotella intermedia, ATCC25611, P. intermedia ATCC 25611, read-out: MBC) | MBC (B. cereus ATCC 10876; Bacillus cereus, ATCC10876, B. cereus ATCC 10876, read-out: MBC) | MBC (S. aureus ATCC 25923; Staphylococcus aureus, ATCC25923, S. aureus ATCC 25923, read-out: MBC) | MIC (S. aureus ATCC 25923; Staphylococcus aureus, ATCC25923, S. aureus ATCC 25923, read-out: MIC) | MBC (E. coli ATCC 25922; Escherichia coli, ATCC25922, E. coli ATCC 25922, read-out: MBC) | MIC (E. coli ATCC 25922; Escherichia coli, ATCC25922, E. coli ATCC 25922, read-out: MIC) | MBC (A. israeli ATCC 10049; Actinomyces israelii, ATCC10049, A. israeli ATCC 10049, read-out: MBC) | MIC (A. israeli ATCC 10049; Actinomyces israelii, ATCC10049, A. israeli ATCC 10049, read-out: MIC)
500 µg/mL: MBC ([1]; Staphylococcus epidermidis, ATCC12228, S. epidermidis ATCC 12228, read-out: MBC) | MIC ([1]; Staphylococcus epidermidis, ATCC12228, S. epidermidis ATCC 12228, read-out: MIC) | MIC (B. cereus ATCC 10876; Bacillus cereus, ATCC10876, B. cereus ATCC 10876, read-out: MIC)
5.85 µM/mL: MIC (P. intermedia ATCC 25611; [7]) | MBC (K. pneumoniae ATCC 13883; [16]) | MIC (K. pneumoniae ATCC 13883; [16])
0.09 µM/mL: MBC (H. pylori ATCC 43504; [6]) | MIC (H. pylori ATCC 43504; [6])
> 5.85 µM/mL: MBC (P. acnes ATCC 11827; [4]) | MIC (P. acnes ATCC 11827; [4]) | MBC (P. intermedia ATCC 25611; [7]) | MBC (B. cereus ATCC 10876; [9]) | MBC (S. aureus ATCC 25923; [10]) | MIC (S. aureus ATCC 25923; [10]) | MBC (E. coli ATCC 25922; [13]) | MIC (E. coli ATCC 25922; [13]) | MBC (A. israeli ATCC 10049; [15]) | MIC (A. israeli ATCC 10049; [15])
1.95 µg/mL: MBC (V. parvula ATCC 10790; Veillonella parvula, ATCC10790) | MIC (V. parvula ATCC 10790; Veillonella parvula, ATCC10790) | MBC (F. nucleatum ATCC 25586; [12]) | MIC (F. nucleatum ATCC 25586; [12])
> 10 µM: IC50 (HepG2 cells [2]) | IC50 (HepG2 cells [3])
0.01 µM/mL: MBC (V. parvula ATCC 10790; [5]) | MIC (V. parvula ATCC 10790; [5]) | MBC (F. nucleatum ATCC 25586; [11]) | MIC (F. nucleatum ATCC 25586; [11])
0.49 µg/mL: MBC (B. fragilis ATCC 10240; Bacteroides fragilis, ATCC10240, B. fragilis ATCC 10240, read-out: MBC) | MIC (B. fragilis ATCC 10240; Bacteroides fragilis, ATCC10240, B. fragilis ATCC 10240, read-out: MIC)
0.003 µM/mL: MBC (B. fragilis ATCC 10240; [14]) | MIC (B. fragilis ATCC 10240; [14])
15.6 µg/mL: MBC (H. pylori ATCC 43504; Helicobacter pylori, ATCC43504, H. pylori ATCC 43504, read-out: MBC) | MIC (H. pylori ATCC 43504; Helicobacter pylori, ATCC43504, H. pylori ATCC 43504, read-out: MIC)
2.93 µM/mL: MBC [1, 8] | MIC [1, 8] | MIC (B. cereus ATCC 10876; [9])
1000 µg/mL: MIC (P. intermedia ATCC 25611; Prevotella intermedia, ATCC25611, P. intermedia ATCC 25611, read-out: MIC) | MBC (K. pneumoniae ATCC 13883; Klebsiella pneumoniae, ATCC13883, K. pneumoniae ATCC 13883, read-out: MBC) | MIC (K. pneumoniae ATCC 13883; Klebsiella pneumoniae, ATCC13883, K. pneumoniae ATCC 13883, read-out: MIC)

Reference: PMC8869984, “Multifunctional Silver(I) Complexes with Metronidazole Drug Reveal Antimicrobial Properties and Antitumor Activity against Human Hepatoma and Colorectal Adenocarcinoma Cells” (Cancers, 2022)
